pIC50: −log10 of the molar value. In brackets after ≈: the same amount, converted by molar mass.
Assays:
[1] = test system: MRSA (ATCC 33591); assay: MIC, CLSI broth microdilution; format: cell-based, S. aureus; details: three individual replicates
Description: The medium employed for the assay was Mueller Hinton II Broth (MHB II; Becton-Dickinson, Sparks, MD, USA). Agar plates used for the organisms were trypticase soy agar plus 5% sheep blood (BD; Sparks, MD, USA). MIC assay plates were prepared using the CLSI broth microdilution procedure. Automated liquid handlers (Multidrop 384, Biomek 2000 and Biomek FX) were used to conduct serial dilutions and liquid transfers. A standardized inoculum of each organism was prepared per CLSI methods. Suspensions were prepared to equal a 0.5 McFarland standard, followed by a 1:20 dilution in test media. The inocula were dispensed into sterile reservoirs divided by length (Beckman Colter) and the Biomek 2000 was used to inoculate the plates. Daughter plates were placed on the Biomek 2000 work surface in reverse orientation so that inoculation took place from low to high drug concentration. The Biomek 2000 delivered 10 μL of the diluted suspension into each well. These inoculations yielded a final cell concentration in the daughter plates of ~5 × 10^5 colony-forming units/mL in each well. The wells of the daughter plates ultimately contained 185 μL of broth, 5 μL of drug solution, and 10 μL of bacterial inoculum. Plates were covered with a sterile lid on the top plate, placed in plastic bags, and incubated at 35 °C for ~18 h. The microplates were viewed from the bottom using a plate viewer and the MIC was read. The MIC was recorded as the lowest concentration of drug that inhibited visible growth of the organism. Uninoculated solubility control plates were also observed for evidence of drug precipitation.

[2] = target: AcpS (Escherichia coli, UniProt P24224); assay: AcpS enzyme activity inhibition (IC50) by DNM compounds, [3H]acetyl-CoA / apo-ACP assay; format: biochemical; details: three individual replicates
Sequence of AcpS (P24224 2-126): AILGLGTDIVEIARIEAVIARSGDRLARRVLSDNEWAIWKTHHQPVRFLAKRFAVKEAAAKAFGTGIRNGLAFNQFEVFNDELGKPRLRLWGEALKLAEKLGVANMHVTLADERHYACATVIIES
From the text: The acpP gene encoding ACP was amplified from E. coli genomic DNA and subcloned into the pGEX4T-1 vector. This construct drives the expression of glutathione S-transferase (GST) fused to the ACP open reading frame through a linker containing a consensus sequence for thrombin cleavage. The identity and veracity of acpP was verified by DNA sequencing. BL21 E. coli cells expressing GST-ACP were suspended in ice-cold phosphate buffer saline (PBS) and lysed by sonication. The lysate was made 1% Triton X-100 and rested on ice for 30 min with occasional mixing. A clear supernatant was isolated by centrifugation at 46,000 × g for 30 min, brought to 10 mM MgCl2 and 2 mM MnCl2 and incubated at room temperature for 1 h with occasional mixing. The supplementation of the lysate to 10 mM MgCl2 and 2 mM MnCl2 favors the activity of endogenous ACP phosphodiesterase (acpH) enriching the apo- fraction of GST-ACP. GST-ACP was affinity purified upon binding to glutathione-sepharose. The ACP moiety was eluted from the affinity resin by in-column thrombin digestion. Apo-ACP was separated from holo-ACP and acylated forms of ACP by ion-exchange chromatography on a Mono-Q 5/50 GL at pH 6.1 operated from an AKTA Pure 25 platform. The purity of the apo-ACP preparation was assessed by 20% PAGE on native gels containing 0.5 M urea.
The acpS gene was amplified from S. aureus and E. coli genomic DNA and inserted into a pET23b vector using standard recombinant DNA methodology such that the protein product would result in addition of a C-terminal 6x-His tag in frame with the AcpS open reading frames. The DNA sequences inserted in the vector were sequenced and found to be identical to the known E. coli and S. aureus acpS open reading frames. Recombinant His-Tagged AcpS expression was induced by IPTG addition and overnight culture. Cell lysate was obtained by sequential aspiration through 16, 18 and 21 G needles in a buffer of 50 mM Tris-HCl (pH 8.5), 10 mM MgCl2, 2 mM DTT, 5% glycerol, and further adjusted to pH 8.1 with MES. […] In a typical AcpS enzyme activity assay, 57 µM [^3H]acetyl-CoA, 2 µg apo-ACP, 10 mM MgCl2, 5 mM DTT, 50 mM Na phosphate (pH 7.0), and AcpS in a final volume of 10 µL were incubated at room temperature in a 1.5 mL microcentrifuge tube. At 5, 10, 15, and 20 min 2 µL of reaction were added to 750 µl 10% TCA on ice. Bovine serum albumin (BSA; 20 µl of a 25 mg/mL solution) was then added to facilitate precipitation of radiolabeled protein. The samples were centrifuged at 12,000 × g for 5 min. Supernatants were removed, and the pellets were rinsed twice with 750 µl of 10% trichloroacetic acid. Pellets were resuspended in 50 µl of formic acid and transferred to scintillation vials. 2 mL of scintillation fluid was added, and the amount of [^3H]-labeled holo-ACP formed was quantified by liquid scintillation counting. The enzymatic reaction proceeded in a linear manner depending on time (10–40 min) and enzyme concentration (1–5 nM). Routinely, each data point was determined at least by triplicate.

Structure (SMILES)	MIC [1] [µg/mL]	pIC50 [2]
Clc1ccc(-c2cc(-c3nnn[nH]3)c(-c3ccc(Cl)cc3)s2)cc1 [DNM0213]	2 (≈ 5.36 µM)	
Cc1ccc(-c2cc(-c3nnn[nH]3)cc(-c3ccc(C)c4ccccc34)c2)c2ccccc12 [DNM0461]	0.5 (≈ 1.17 µM)	
c1ccc(-c2ccccc2-c2cc(-c3nnn[nH]3)cc(-c3ccccc3-c3ccccc3)c2)cc1 [DNM0464]	0.5 (≈ 1.11 µM)	5.05
Clc1ccc(-c2sc(-c3ccccc3-c3ccccc3)cc2-c2nnn[nH]2)cc1 [DNM0466]	1 (≈ 2.41 µM)	5.05
Cc1ccc(-c2sc(-c3ccccc3-c3ccccc3)cc2-c2nnn[nH]2)c2ccccc12 [DNM0472]	2 (≈ 4.5 µM)	5.00
Cc1ccc(-c2sc(-c3ccc(Cl)cc3)cc2-c2nnn[nH]2)c2ccccc12 [DNM0473]	2 (≈ 4.96 µM)	5.00
Cc1ccc(-c2cc(-c3nnn[nH]3)c(-c3ccccc3-c3ccccc3)s2)c2ccccc12 [DNM0478]	1 (≈ 2.25 µM)	5.10
Clc1ccc(-c2cc(-c3nnn[nH]3)cc(-c3ccccc3-c3ccccc3)c2)cc1 [DNM0479]	1 (≈ 2.45 µM)	5.05
Cc1ccc(-c2cc(-c3ccc(Cl)cc3)cc(-c3nnn[nH]3)c2)c2ccccc12 [DNM0480]	2 (≈ 5.04 µM)	5.10
Cc1cc(Cl)ccc1-c1cc(-c2nnn[nH]2)sc1-c1ccc(Cl)cc1C [DNM0488]	2 (≈ 4.98 µM)	5.05
c1ccc(-c2ccccc2-c2cc(-c3nnn[nH]3)sc2-c2ccccc2-c2ccccc2)cc1 [DNM0489]	2 (≈ 4.38 µM)	5.00
Clc1cccc(-c2ccccc2-c2cc(-c3nnn[nH]3)cc(-c3ccccc3-c3cccc(Cl)c3)c2)c1 [DNM0493]	2 (≈ 3.85 µM)	4.85
Cc1ccc(-c2ccccc2-c2cc(-c3nnn[nH]3)c(-c3ccccc3-c3ccc(C)c(C)c3)s2)cc1C [DNM0495]	2 (≈ 3.9 µM)	5.00
c1ccc2c(c1)oc1c(-c3cc(-c4nnn[nH]4)sc3-c3cccc4c3oc3ccccc34)cccc12 [DNM0542]	1 (≈ 2.06 µM)	4.92
CC(C)(C)c1ccc(-c2cc(-c3nnn[nH]3)sc2-c2ccc(C(C)(C)C)cc2)cc1 [DNM0546]	2 (≈ 4.8 µM)	4.80
CC(C)c1cc(Cl)ccc1-c1cc(-c2nnn[nH]2)sc1-c1ccc(Cl)cc1C(C)C [DNM0548]	2 (≈ 4.37 µM)	5.10
c1ccc(-c2cc(-c3nnn[nH]3)sc2-c2ccccc2-c2ccsc2)c(-c2ccsc2)c1 [DNM0559]	1 (≈ 2.13 µM)	5.05
CC(C)c1cc(Cl)ccc1-c1cc(C(=O)O)sc1-c1ccc(Cl)cc1C(C)C [DNM0566]	1 (≈ 2.31 µM)	4.89
Clc1ccc(Cc2sc(-c3nnn[nH]3)cc2-c2cccc(CC3CCCC3)c2)cc1 [DNM0610]	1 (≈ 2.3 µM)	5.05
CCCCc1cccc(-c2cc(-c3nnn[nH]3)sc2Cc2ccccc2)c1 [DNM0626]	0.5 (≈ 1.34 µM)	5.05
CCCCc1cccc(-c2sc(-c3nnn[nH]3)c(C)c2-c2cccc(CCCC)c2)c1 [DNM0627]	0.25 (≈ 0.581 µM)	5.00
Cc1ccc(-c2cc(-c3nnn[nH]3)sc2[C@@H]2CCCc3ccccc32)c2ccccc12 [DNM0636]	2 (≈ 4.73 µM)	4.89

From PMC11436758, “Computer-aided drug design to generate a unique antibiotic family” (Nature Communications, 2024)
